Results published in PubChem BioAssay AID1645868 (Buhrlage Lab, Dana-Farber Cancer Institute and Novartis …, 2021).
The source made the active and inactive calls.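 The calls were made as follows: active = maximal percent inhibition of the deubiquitinase OTUD3 of at least 30% across the tested doses; inactive = the rest.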

molecular target: OTU domain-containing protein 3 (Homo sapiens) (UniProt Q5T2D3); test: Validation of screening hits, potency titration, in vitro enzymatic, OTU domain-containing protein 3 DUB inhibitors (AID 1645868); details: purified OTUD3, ubiquitin-rhodamine cleavage fluorescence, 2 h
Sequence (Q5T2D3 whole entry, looked up, the tested form may be a part): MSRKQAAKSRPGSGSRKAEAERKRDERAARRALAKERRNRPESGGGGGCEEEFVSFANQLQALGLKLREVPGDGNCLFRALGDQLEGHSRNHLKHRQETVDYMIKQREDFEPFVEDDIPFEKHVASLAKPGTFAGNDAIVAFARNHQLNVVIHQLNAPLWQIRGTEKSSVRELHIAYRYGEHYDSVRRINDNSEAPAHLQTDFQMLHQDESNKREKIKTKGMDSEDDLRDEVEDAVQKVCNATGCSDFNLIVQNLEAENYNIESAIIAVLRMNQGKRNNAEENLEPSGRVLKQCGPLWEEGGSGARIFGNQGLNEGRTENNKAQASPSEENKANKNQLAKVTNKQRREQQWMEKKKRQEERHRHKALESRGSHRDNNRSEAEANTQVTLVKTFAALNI

| Compound | IC50 |
| --- | --- |
| COc1cc2c(cc1OC)-c1cc(Nc3ccc(Br)cc3)nc(=O)n1CC2 | 8.29 µM |
| COc1cccc(NC(=O)Nc2ccc3nc4n(c(=O)c3c2)CCCC4)c1 | > 50 µM (inactive) |
| CC(C)Cc1nc2sc3c(NCc4ccccc4)ncnc3c2c2c1COC(C)(C)C2 | 31.9 µM |
| COc1cccc(-c2cc(C(=O)N3CCN(c4ccc(N5CCOCC5)nn4)CC3)[nH]n2)c1 | > 50 µM (inactive) |
| Cc1ccc2nc(CNC(=O)c3ccccc3-c3nc(-c4ccc(F)cc4)no3)[nH]c2c1 | 39.9 µM |
| COc1ccc(N(CC(=O)NC2CCCCC2)C(=O)c2ccc(-c3ccccc3)[nH]2)cc1OC | 11.8 µM |
| Cc1cn[nH]c1C1COCCN1C(=O)c1ccc2ncccc2c1 (configuration not stated) | > 50 µM (inactive) |
| COc1cc2c(cc1OC)C(COc1ccccc1OC)N(C(=O)c1ccc3ccccc3c1)CC2 (configuration not stated) | > 50 µM (inactive) |
| N#Cc1ccccc1OCc1csc(-c2ccccc2)n1 | > 50 µM (inactive) |
| O=S(=O)(c1cccc(F)c1)N1CCN(c2nnnn2-c2ccccc2)CC1 | > 50 µM (inactive) |
| COc1ccc(-c2nc3n(n2)C(CC(=O)Nc2cccc4ccccc24)C(=O)N3)cc1 (configuration not stated) | 13 µM |
| O=C(NCC(c1cccnc1)N1CCc2ccccc2C1)C(=O)Nc1ccc2c(c1)OCO2 (configuration not stated) | 37.7 µM |
| O=C(Cc1ccccc1F)Nc1nc(-c2ccco2)c(-c2ccco2)s1 | > 50 µM (inactive) |
| CC(C)(C)c1ccc(C(=O)Nc2ccc(Oc3cccnc3)nc2)cc1 | > 50 µM (inactive) |
| N#Cc1c(-c2cccs2)cc(-c2cccs2)[nH]c1=O | > 50 µM (inactive) |
| CCCc1nc2c(sc3nc4c(cc32)COC(C)(C)C4)c(=O)n1CC(=O)Nc1ccccc1C | 30 µM |
| O=C(NCc1ccc(-c2nc3cnccc3o2)cc1)c1ccccc1F | 20.5 µM |
| Fc1cc(F)c2[nH]cc(-c3nnnn3-c3ccc4ccccc4c3)c2c1 | 32.6 µM |
| Cc1cccc(C(=O)Nc2ccccc2Sc2nc3c(c(=O)n(C)c(=O)n3C)n2C)c1 | > 50 µM (inactive) |
| COc1cccc(-n2c(CNCc3cccnc3)nc3ccc([N+](=O)[O-])cc3c2=O)c1 | > 50 µM (inactive) |
| Oc1cc(OCc2cccc(C(F)(F)F)c2)ccc1-c1ccn[nH]1 | 45 µM |
| O=C(Nc1nnc(C2CC2)s1)c1ccc(OCC2CCCO2)cc1 (configuration not stated) | > 50 µM (inactive) |
| Cc1ccc(CNC(=O)Cn2cnc3c(cnn3-c3cccc(Cl)c3)c2=O)cc1 | > 50 µM (inactive) |
| O=C(Cc1cccs1)Nc1cc(F)c2nc(N3CCOCC3)ccc2c1 | > 50 µM (inactive) |
| O=C(Nc1ccccc1Cl)N(Cc1cc2cc3c(cc2[nH]c1=O)OCCO3)C1CCCCC1 | 40.6 µM |

| Compound | IC50 |
| --- | --- |
| O=C(Nc1ccc(F)c(Cl)c1)c1ccc(N2CCCCS2(=O)=O)cc1Cl | > 50 µM (inactive) |
| Cc1nnc(NC(=O)C2CCN(c3ccc(S(N)(=O)=O)cc3[N+](=O)[O-])CC2)o1 | 15.6 µM |
| Cc1ccc(NC(=O)c2ccc3nn(CC(=O)Nc4ccc(F)cc4F)c(=O)n3c2)cc1 | > 50 µM (inactive) |
| Cc1ccc(S(=O)(=O)N2CCC3(CC2)NC(=O)c2ccccc2N3)cc1C | > 50 µM (inactive) |
| CCC(=O)Nc1cccnc1-c1ccc(C(=O)Nc2cccc(OC)c2)cc1 | > 50 µM (inactive) |
| COCCNC(=O)c1ccc(-c2ccc(N3CCCCC3)nc2)cc1 | 25 µM |
| Cc1ccc(CNC(=O)CCCn2c(=O)c3sccc3n(CC(=O)Nc3cc(Cl)ccc3C)c2=O)cc1 | 9.57 µM |
| CCOC(=O)c1cnc(C(F)(F)F)nc1Sc1n[nH]c(-c2cccs2)n1 | > 50 µM (inactive) |
| O=C(Nc1ccc2c(c1)OCCO2)c1cccc2nc3ccccc3nc12 | 32.8 µM |
| COc1ccc(-c2nonc2NC(=O)C(c2ccccc2)c2ccccc2)cc1OC | > 50 µM (inactive) |
| Cc1c(-c2nn3c(-c4ccco4)nnc3s2)cccc1[N+](=O)[O-] | > 5 µM (inactive) |
| CC(C)c1cc(NCc2ccccc2)n2nc(-c3cccnc3)nc2n1 | 25.4 µM |
| COc1cc([C@@H]2c3cc4c(cc3C[C@@H]3COC(=O)[C@H]32)OCO4)cc(OC)c1OC | 20.5 µM |
| N#Cc1ccccc1Cn1c(=O)n(CCCCC(=O)NCCc2ccccc2)c(=O)c2ccccc21 | 23.7 µM |
| COc1ccc(-n2nnc(C(=O)Nc3ccccc3)c2N)cc1 | > 50 µM (inactive) |
| O=C1CC(C(=O)Nc2ccccc2Cl)n2nc(-c3ccccc3)cc2N1 (configuration not stated) | 34 µM |
| COc1ccc(CCNc2c(-c3ccccc3O)nc3cnccn23)cc1OC | > 50 µM (inactive) |
| COCCn1c(=S)[nH]c2cc(C(=O)NCCSCc3ccccc3)ccc2c1=O | > 50 µM (inactive) |
| CCc1cc(C(=O)c2ccc(OC)cc2)c(NC(=O)CN2CCCCC2)s1 | > 50 µM (inactive) |
| CCn1cnc2c1c(=O)n(CC(=O)NCc1ccccc1Cl)c(=O)n2Cc1ccccc1 | > 50 µM (inactive) |
| CCOc1ccccc1NC(=O)Cn1ccn2nc(-c3ccc(OC)cc3)cc2c1=O | > 50 µM (inactive) |
| N#Cc1ccc(NC(=O)Nc2cccn(Cc3c(F)cccc3Cl)c2=O)cc1 | > 50 µM (inactive) |
| COc1ccccc1-c1nc(-c2cn(-c3ccc(C)cc3)nn2)no1 | > 50 µM (inactive) |
| Fc1cccc(-n2cc(-c3noc(-c4ccccn4)n3)nn2)c1 | 27 µM |
| Cc1ccc(-n2c(=O)[nH]c3c(C(N)=O)nc(-c4cccnc4)nc32)cc1 | 30.8 µM |

| Compound | IC50 |
| --- | --- |
| Cc1nn(Cc2ccccc2)c(Cl)c1C(=O)NC1CCCc2ccccc21 (configuration not stated) | > 50 µM (inactive) |
| CC(C)N1CC2CN(C(=O)c3ccccc3)CCN2Cc2ccccc21 (configuration not stated) | > 50 µM (inactive) |
| CCCCc1nc2sc3c(SCC(=O)NCc4ccccc4)ncnc3c2c2c1CCC2 | > 50 µM (inactive) |
| Fc1ccc(Oc2nc(CN3CCOCC3)nc3sc4c(c23)CCCC4)c(Cl)c1 | > 50 µM (inactive) |
| CCOC(=O)c1ccc(-n2c(=O)c(C#N)cc3c(=O)n4ccccc4nc32)cc1 | > 50 µM (inactive) |
| O=C(NCc1ccc2c(c1)OCO2)c1cc(-c2cc(Cl)ccc2O)n[nH]1 | 40.7 µM |
| CN1CCC(N(C)S(=O)(=O)c2ccc(NC(=O)c3cccc(OCc4ccccc4)c3)cc2)CC1 | > 50 µM (inactive) |
| O=c1c2ccccc2oc2nc(-c3cccs3)n(-c3ccccc3)c(=O)c12 | 3.6 µM |
| COc1cccc(C(=O)NCc2[nH]nc3ccccc23)c1 | > 50 µM (inactive) |
| Cc1ccc(-c2ncc(C(=O)NCc3cccc(C)c3)c(-c3ccncc3)n2)cc1 | > 50 µM (inactive) |
| O=C(/C=C/c1ccccc1)N1CCN(C2=NS(=O)(=O)c3ccccc32)CC1 | > 50 µM (inactive) |
| COc1ccc(NC(=O)c2ccc(-n3nnnc3SC)cc2)cc1Cl | > 50 µM (inactive) |
| Cc1ccccc1-c1nnc(-c2ccc(C(=O)NCc3ccccc3F)cc2)o1 | 31.6 µM |
| COC(=O)c1ccc(C(=O)Nc2cc3ccccc3cc2NC(=O)c2ccc(C(=O)OC)cc2)cc1 | 19.1 µM |
| CCOc1ccc(NC(=O)CSc2nc3n[nH]c(C)c3c(=N)n2-c2ccc(OC)cc2)cc1 | > 50 µM (inactive) |
| COc1ccc(CN2CCCC23CCCN(C(=O)CCc2cccnc2)C3)cc1F (configuration not stated) | 49.5 µM |
| Cc1cccc(N2C(=O)/C(=C\c3ccc4c(c3)OCCO4)c3ccccc3C2=O)c1 | > 50 µM (inactive) |
| CNC(=O)c1cc2nc(N(C)C)n(-c3ccccc3)c2s1 | > 50 µM (inactive) |
| Cc1ccccc1C(=O)OCCN1C(=O)c2cccc3c(N4CCCCC4)ccc(c23)C1=O | > 50 µM (inactive) |
| CCC/C=C\C#CC/C=C\CCCCCCCC(=O)O | 1.37 µM |
| Cc1cccc(NC(=O)Cn2c(=O)n(Cc3ccc(F)cc3)c(=O)c3sccc32)c1 | 17.5 µM |
| O=C(Cn1c(=O)nc(-c2ccccc2)c2ccccc21)NCc1ccc2c(c1)OCO2 | 22.3 µM |
| CCOc1ccc2c(c1)c(=O)c(C(=O)c1ccc(C)cc1)cn2CC(=O)Nc1ccc(OC)cc1 | > 50 µM (inactive) |
| Oc1ccc(-c2nc3ccc(Cl)cn3c2NC2CCCCC2)cc1 | 29.7 µM |
| Cn1cccc1C(=O)N1CCCC2(C1)Nc1cccnc1NC2=NC1CCCC1 (configuration not stated) | > 50 µM (inactive) |

| Compound | IC50 |
| --- | --- |
| Cc1nc2sc(C(=O)Nc3ccccc3Br)c(N)c2c(C)c1C | 15.5 µM |
| COc1ccc(CC(=O)Nc2cccc(-c3nc4ncccc4o3)c2)cc1OC | > 50 µM (inactive) |
| COc1ccc(CCNC(=O)c2cc(C3CC3)nc3c2cnn3C(C)C)cc1 | > 50 µM (inactive) |
| Cn1c(COc2ccccc2)nnc1SCC(=O)Nc1ccc(N2CCOCC2)cc1 | 22.5 µM |
| O=C(Cn1cnc2c(oc3ccccc32)c1=O)NCc1ccccc1Cl | 36.7 µM |
| O=C(NCc1ccccc1Cl)c1ccc2cn[nH]c2c1 | > 50 µM (inactive) |
| O=C(Nc1ccc2c(c1)OCCO2)C1CCC(Cn2cnc3ccccc3c2=O)CC1 (configuration not stated) | > 50 µM (inactive) |
| CC(=O)N1CCc2cc(S(=O)(=O)NCc3ccc(C)cc3)ccc21 | > 50 µM (inactive) |
| O=C(Nc1ccccc1-c1nc2ccccc2[nH]1)c1sc2ccccc2c1Cl | 4.1 µM |
| COCC(C)Nc1ncc(-c2cnccn2)c(-c2ccc(C)s2)n1 (configuration not stated) | > 50 µM (inactive) |
| Cn1c2ccccc2c2ncn(Cc3ccc(F)cc3)c(=O)c21 | > 50 µM (inactive) |
| O=C1N[C@@H](Cc2ccccc2)C(=O)N2[C@H]3Nc4ccccc4[C@@]3([C@]34C[C@H]5C(=O)N[C@@H](Cc6ccccc6)C(=O)N5[C@H]3Nc3ccccc34)C[C@@H]12 | 47.6 µM |
| COc1ccc(S(=O)(=O)N2CCN3Cc4ccccc4N(C)CC3C2)cc1 (configuration not stated) | > 50 µM (inactive) |
| Cc1oc(C2CC2)cc1C(=O)N1CCC2(CC1)CC1(CO2)Nc2ccccc2-n2cccc21 (configuration not stated) | > 50 µM (inactive) |
| O=C(CCCn1c(=O)[nH]c2cc(Cl)ccc2c1=O)N1CCc2ccccc2C1 | 29 µM |
| Cc1nc2c3ccccc3nc(NCc3ccc4c(c3)OCO4)n2n1 | > 50 µM (inactive) |
| O=C1COc2ccccc2N1Cc1noc(-c2ccccc2)n1 | > 50 µM (inactive) |
| Cc1oc(-c2ccc(C(=O)NCC3COCCO3)cc2)nc1CN1CCc2ccccc21 (configuration not stated) | > 50 µM (inactive) |
| CCNc1oc(-c2ccc(S(=O)(=O)N3CCCCC3)cc2)nc1C#N | > 50 µM (inactive) |
| O=C(CN1CCCc2ccccc21)Nc1ccc(N2CCOCC2)cc1 | > 50 µM (inactive) |
| Cc1cccc(C(=O)N2CCc3cc(-c4nc(NC(=O)CNc5ccccc5)sc4C)ccc32)c1 | > 50 µM (inactive) |
| Clc1cccc(N2CCN(c3ncnc4nc[nH]c34)CC2)c1 | > 50 µM (inactive) |
